Source: patent US7342015B2, “Indole derivatives” (H. Lundbeck A/S, priority 2001, dated 2008)

Tests used:
[1] = molecular target: T1, re-uptake of serotonin (3H-5-HT uptake into whole rat brain synaptosomes) (Rattus norvegicus, UniProt P31652); test: Inhibition of 3H-5-HT uptake into rat brain synaptosomes; assay type: biochemical; details: in vitro
T1 construct: whole rat brain synaptosomes; from tissue; host or cells: whole rat brain synaptosomes
Experimental: The compounds of the invention have also been tested for their effect on re-uptake of serotonin in the following test:
Inhibition of ^3H-5-HT Uptake Into Rat Brain Synaptosomes.
Using this method, the ability of drugs to inhibit the accumulation of ^3H-5-HT into whole rat brain synaptosomes is determined in vitro. The assay was performed as described by Hyttel, J. Psychopharmacology 1978, 60, 13.

[2] = molecular target: T2, cloned 5-HT1A receptors (Homo sapiens, UniProt P08908); test: 5-HT1A antagonistic activity: antagonism of 5-HT induced inhibition of forskolin induced cAMP accumulation in transfected HeLa cells (HA7); assay type: cell-based; details: cloned 5-HT1A receptors in transfected HeLa cells (HA7)
T2 construct: expressed in transfected cells; host or cells: HeLa cells (HA7)
T2 sequence (P08908 1-422): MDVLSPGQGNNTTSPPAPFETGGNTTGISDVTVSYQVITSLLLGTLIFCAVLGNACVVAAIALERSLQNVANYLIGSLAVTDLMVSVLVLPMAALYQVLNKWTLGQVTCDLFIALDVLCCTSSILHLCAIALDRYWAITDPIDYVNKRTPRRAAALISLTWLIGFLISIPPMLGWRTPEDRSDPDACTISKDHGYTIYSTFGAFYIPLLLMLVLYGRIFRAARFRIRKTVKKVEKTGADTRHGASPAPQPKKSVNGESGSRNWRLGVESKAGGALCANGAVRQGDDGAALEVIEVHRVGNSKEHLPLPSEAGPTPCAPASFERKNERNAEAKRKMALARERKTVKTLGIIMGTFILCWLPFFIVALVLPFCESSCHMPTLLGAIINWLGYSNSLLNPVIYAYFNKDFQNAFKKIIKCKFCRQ
Experimental: The 5-HT1A antagonistic activity of some of the compounds of the invention has been estimated in vitro at cloned 5-HT1A receptors, stably expressed in transfected HeLa cells (HA7). In this test, 5-HT1A antagonistic activity is estimated by measuring the ability of the compounds to antagonize the 5-HT induced inhibition of forskolin induced cAMP accumulation. The assay was performed as a modification of the method described by Pauwels, P. J. et al. Biochem. Pharmacol. 1993, 45, 375.

[3] = molecular target: T2, cloned 5-HT1A receptors; test: Inhibition of 3H-5-CT binding to human 5-HT1A receptors; details: cloned human 5-HT1A receptors in transfected HeLa cells (HA7), 15 minutes at 37° C., pH 7.7
Experimental: The affinity of the compounds of the invention to 5-HT1A receptors was determined by measuring the inhibition of binding of a radioactive ligand at 5-HT1A receptors as described in the following test:
Inhibition of ^3H-5-CT Binding to Human 5-HT1A Receptors.
By this method, the inhibition by drugs of the binding of the 5-HT1A agonist ^3H-5-carboxamido tryptamine (3H-5-CT) to cloned human 5-HT1A receptors stably expressed in transfected HeLa cells (HA7) (Fargin, A. et al. J. Biol. Chem. 1989, 264, 14848) is determined in vitro. The assay was performed as a modification of the method described by Harrington, M. A. et al. J. Pharmacol. Exp. Ther. 1994, 268, 1098. Human 5-HT1A receptors (40 μg of cell homogenate) were incubated for 15 minutes at 37° C. in 50 mM Tris buffer at pH 7.7 in the presence of ^3H-5-CT. Non-specific binding was determined by including 10 μM of metergoline. The reaction was terminated by rapid filtration through Unifilter GF/B filters on a Tomtec Cell Harvester. Filters were counted in a Packard Top Counter.

T1 sequence (P31652 whole entry): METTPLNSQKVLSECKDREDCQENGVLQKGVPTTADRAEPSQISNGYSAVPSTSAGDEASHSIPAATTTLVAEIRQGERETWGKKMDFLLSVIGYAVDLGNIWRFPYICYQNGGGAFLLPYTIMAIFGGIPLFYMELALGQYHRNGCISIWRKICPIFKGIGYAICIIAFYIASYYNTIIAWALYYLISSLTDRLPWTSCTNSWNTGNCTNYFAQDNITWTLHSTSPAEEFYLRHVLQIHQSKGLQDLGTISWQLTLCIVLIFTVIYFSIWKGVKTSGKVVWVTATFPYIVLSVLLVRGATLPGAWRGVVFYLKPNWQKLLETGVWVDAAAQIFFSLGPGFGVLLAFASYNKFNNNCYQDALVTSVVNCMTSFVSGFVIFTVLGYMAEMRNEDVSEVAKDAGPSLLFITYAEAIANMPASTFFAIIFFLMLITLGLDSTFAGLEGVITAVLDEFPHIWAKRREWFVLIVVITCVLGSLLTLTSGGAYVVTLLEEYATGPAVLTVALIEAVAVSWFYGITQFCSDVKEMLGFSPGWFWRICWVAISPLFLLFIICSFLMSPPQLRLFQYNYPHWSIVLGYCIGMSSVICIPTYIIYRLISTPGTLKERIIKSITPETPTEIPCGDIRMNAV

Row | Structure (SMILES) | IC50 [1] | IC50 [2] | IC50 [3]
1 | Cc1cc(C)c(C#N)c(SCCN2CCN(c3cccc4[nH]ccc34)CC2)n1 [Compound 1a, 2-{2-[4-(1H-Indol-4-yl)piperazin-1-yl]ethylsulfanyl}-4,6-dimethylnicotinonitrile] | < 0.02 µM | < 7 µM | 
2 | Cc1ccc(C#N)c(SCCN2CCN(c3cccc4[nH]ccc34)CC2)n1 [Compound 1d, 2-{2-[4-(1H-Indol-4-yl)piperazin-1-yl]ethylsulfanyl}-6-methylnicotinonitrile] | < 0.02 µM | < 7 µM | < 0.05 µM
3 | Cc1cc(C)c(C#N)c(SCCCN2CCN(c3cccc4[nH]ccc34)CC2)n1 [Compound 1l, 2-{3-[4-(1H-Indol-4-yl)piperazin-1-yl]propylsulfanyl}-4,6-dimethylnicotinonitrile] | < 0.02 µM | < 7 µM | 
4 | N#Cc1cccnc1SCCN1CCN(c2cccc3[nH]ccc23)CC1 [Compound 2b, 2-{2-[4-(1H-Indol-4-yl)piperazin-1-yl]ethylsulfanyl}nicotinonitrile] | < 0.02 µM | < 7 µM | < 0.05 µM
5 | N#Cc1c(C(F)(F)F)cc(C2CC2)nc1SCCN1CCN(c2cccc3[nH]ccc23)CC1 [Compound 2e, 2-{2-[4-(1H-Indol-4-yl)piperazin-1-yl]ethylsulfanyl}-4-trifluoromethyl-6-cyclopropylnicotinonitrile] | < 0.02 µM | < 7 µM | < 0.05 µM
6 | Cc1cc(C)nc(SCCN2CCN(c3cccc4[nH]ccc34)CC2)n1 [Compound 2o, 4,6-Dimethyl-2-{2-[4-(1H-indol-4-yl)piperazin-1-yl]ethylsulfanyl}pyrimidine] | < 0.02 µM |  | < 0.05 µM
